Assay results from PubChem BioAssay AID1259407 (Chemical Carcinogenesis Research Information System (CCRIS), 2018).
The source made the active and inactive calls. How the calls were made is not given here.

System: CCRIS mutagenicity, Ames/micronucleus/aberration tests
Assay: CCRIS mutagenicity studies
[1] = Test System: AMES SALMONELLA TYPHIMURIUM, Strain/Indicator: TA98, Metabolic Activation: NONE, Method: STANDARD PLATE
[2] = Test System: AMES SALMONELLA TYPHIMURIUM, Strain/Indicator: TA98, Metabolic Activation: RAT, LIVER, S-9, AROCLOR 1254, Method: STANDARD PLATE
[3] = Test System: AMES SALMONELLA TYPHIMURIUM, Strain/Indicator: TA100, Metabolic Activation: NONE, Method: STANDARD PLATE

Measured: mutagenic call

ClCC1CO1 (configuration not stated)
inactive: Test System: AMES SALMONELLA TYPHIMURIUM, Strain/Indicator: TA97, Metabolic Activation: RAT, LIVER, S-9, AROCLOR 1254, Method: STANDARD PLATE inactive; negative | [1] inactive; negative | [2] inactive; negative | Test System: AMES SALMONELLA TYPHIMURIUM, Strain/Indicator: TA98, Metabolic Activation: S-9, Method: PREINCUBATION inactive; negative | Test System: AMES SALMONELLA TYPHIMURIUM, Strain/Indicator: TA1537, Metabolic Activation: NONE, Method: STANDARD PLATE inactive; negative | Test System: AMES SALMONELLA TYPHIMURIUM, Strain/Indicator: TA1537, Metabolic Activation: RAT LIVER S-9, PHENOBARBITAL AND BETA-NAPHTHOFLAVONE, Method: PREINCUBATION inactive; negative | Test System: AMES SALMONELLA TYPHIMURIUM, Strain/Indicator: TA1537, Metabolic Activation: RAT, LIVER, S-9, AROCLOR 1254, Method: STANDARD PLATE inactive; negative | Test System: AMES SALMONELLA TYPHIMURIUM, Strain/Indicator: TA1537, Metabolic Activation: S-9, Method: PREINCUBATION inactive; negative | Test System: CHINESE HAMSTER V-79, Strain/Indicator: V-79/6-THIOGUANINE, Metabolic Activation: NONE, Method: FLASK ASSAY inactive; negative
active: End Point: IN VITRO CHROMOSOMAL ABERRATIONS, Test System: CHL CELLS, Metabolic Activation: NONE active; positive (structural changes) | End Point: IN VITRO CHROMOSOMAL ABERRATIONS, Test System: CHL CELLS, Metabolic Activation: RAT, LIVER, S-9, SODIUM PHENOBARBITAL AND 5,6-BENZOFLAVONE active; positive (structural changes) | Test System: AMES SALMONELLA TYPHIMURIUM, Strain/Indicator: G46, Metabolic Activation: NONE, Method: STANDARD PLATE active; positive | Test System: AMES SALMONELLA TYPHIMURIUM, Strain/Indicator: TA97, Metabolic Activation: NONE, Method: STANDARD PLATE active; positive | Test System: AMES SALMONELLA TYPHIMURIUM, Strain/Indicator: TA98, Metabolic Activation: RAT LIVER S-9, PHENOBARBITAL AND BETA-NAPHTHOFLAVONE, Method: PREINCUBATION active; positive | Test System: AMES SALMONELLA TYPHIMURIUM, Strain/Indicator: TA100, Metabolic Activation: HAMSTER, LIVER, S-9, AROCLOR 1254 (10%), Method: PREINCUBATION active; positive | Test System: AMES SALMONELLA TYPHIMURIUM, Strain/Indicator: TA100, Metabolic Activation: RAT LIVER S-9, PHENOBARBITAL AND BETA-NAPHTHOFLAVONE, Method: PREINCUBATION active; positive | Test System: AMES SALMONELLA TYPHIMURIUM, Strain/Indicator: TA100, Metabolic Activation: RAT, LIVER, S-9, AROCLOR 1254 (10%), Method: PREINCUBATION active; positive | Test System: AMES SALMONELLA TYPHIMURIUM, Strain/Indicator: TA100, Metabolic Activation: S-9, Method: PREINCUBATION active; positive | Test System: AMES SALMONELLA TYPHIMURIUM, Strain/Indicator: TA104, Metabolic Activation: NONE, Method: STANDARD PLATE active; positive | Test System: AMES SALMONELLA TYPHIMURIUM, Strain/Indicator: TA1535, Metabolic Activation: HAMSTER, LIVER, S-9, AROCLOR 1254 (10%), Method: PREINCUBATION active; positive | Test System: AMES SALMONELLA TYPHIMURIUM, Strain/Indicator: TA1535, Metabolic Activation: NONE, Method: DESICCATOR active; positive | Test System: AMES SALMONELLA TYPHIMURIUM, Strain/Indicator: TA1535, Metabolic Activation: NONE, Method: STANDARD PLATE active; positive | Test System: AMES SALMONELLA TYPHIMURIUM, Strain/Indicator: TA1535, Metabolic Activation: RAT LIVER S-9, PHENOBARBITAL AND BETA-NAPHTHOFLAVONE, Method: PREINCUBATION active; positive | Test System: AMES SALMONELLA TYPHIMURIUM, Strain/Indicator: TA1535, Metabolic Activation: RAT, LIVER, S-9, AROCLOR 1254 (10%), Method: PREINCUBATION active; positive | Test System: AMES SALMONELLA TYPHIMURIUM, Strain/Indicator: TA1535, Metabolic Activation: RAT, LIVER, S-9, AROCLOR 1254, Method: STANDARD PLATE active; positive | Test System: AMES SALMONELLA TYPHIMURIUM, Strain/Indicator: TA1535, Metabolic Activation: S-9, Method: PREINCUBATION active; positive | Test System: AMES SALMONELLA TYPHIMURIUM, Strain/Indicator: TA4001, Metabolic Activation: NONE, Method: STANDARD PLATE active; positive | Test System: AMES SALMONELLA TYPHIMURIUM, Strain/Indicator: TA4006, Metabolic Activation: NONE, Method: STANDARD PLATE active; positive | Test System: E. COLI, Strain/Indicator: WP2, Metabolic Activation: NONE, Method: STANDARD PLATE active; positive | Test System: E. COLI, Strain/Indicator: WP2, Metabolic Activation: RAT, LIVER, S-9, AROCLOR 1254, Method: STANDARD PLATE active; positive | Test System: E. COLI, Strain/Indicator: WP2 UVRA, Metabolic Activation: NONE, Method: PREINCUBATION active; positive | Test System: E. COLI, Strain/Indicator: WP2 UVRA, Metabolic Activation: NONE, Method: STANDARD PLATE active; positive | Test System: E. COLI, Strain/Indicator: WP2 UVRA, Metabolic Activation: RAT, LIVER, S-9, AROCLOR 1254, Method: STANDARD PLATE active; positive | Test System: E. COLI, Strain/Indicator: WP2 UVRA, Metabolic Activation: S-9, Method: PREINCUBATION active; positive | Test System: E.COLI, Strain/Indicator: WP2UVRA, Metabolic Activation: NONE, Method: PREINCUBATION active; positive | Test System: E.COLI, Strain/Indicator: WP2UVRA, Metabolic Activation: RAT LIVER S-9, PHENOBARBITAL AND BETA-NAPHTHOFLAVONE, Method: PREINCUBATION active; positive

CC(=O)Oc1ccc(CCl)cc1
active: [3] active; positive

CCC12OC1(C(=O)OC)C(=O)NC2(C)O (configuration not stated)
inactive: Test System: AMES SALMONELLA TYPHIMURIUM, Strain/Indicator: TA98, Metabolic Activation: NONE, Method: DISK ASSAY inactive; negative | [1] inactive; negative | Test System: AMES SALMONELLA TYPHIMURIUM, Strain/Indicator: TA98, Metabolic Activation: RAT, LIVER, S-9, AROCLOR 1254, Method: DISK ASSAY inactive; negative
active: [2] active; positive

O=NN1CCOC(O)C1 (configuration not stated)
active: Test System: AMES SALMONELLA TYPHIMURIUM, Strain/Indicator: TA100, Metabolic Activation: NONE, Method: PREINCUBATION active; positive | Test System: AMES SALMONELLA TYPHIMURIUM, Strain/Indicator: TA1535, Metabolic Activation: NONE, Method: PREINCUBATION active; positive | Test System: AMES SALMONELLA TYPHIMURIUM, Strain/Indicator: TA1535, Metabolic Activation: RAT, LIVER, S-9, AROCLOR 1254, Method: PREINCUBATION active; positive

O=C(O)c1ccccc1[O-].O=C(O)c1ccccc1[O-].O=C(O)c1ccccc1[O-].[Cr+3]
inactive: Test System: AMES SALMONELLA TYPHIMURIUM, Strain/Indicator: TA92, Metabolic Activation: NONE, Method: STANDARD PLATE inactive; negative | Test System: AMES SALMONELLA TYPHIMURIUM, Strain/Indicator: TA94, Metabolic Activation: NONE, Method: STANDARD PLATE inactive; negative | [1] inactive; negative | [3] inactive; negative

Nc1cc2ccccc2c2ccccc12
active: Test System: AMES SALMONELLA TYPHIMURIUM, Strain/Indicator: TA98, Metabolic Activation: RAT, LIVER, S-9, AROCLOR 1254 (2 OR 4%), Method: STANDARD PLATE active; positive | Test System: AMES SALMONELLA TYPHIMURIUM, Strain/Indicator: TA100, Metabolic Activation: RAT, LIVER, S-9, AROCLOR 1254 (4%), Method: STANDARD PLATE active; positive | Test System: AMES SALMONELLA TYPHIMURIUM, Strain/Indicator: TA1535, Metabolic Activation: RAT, LIVER, S-9, AROCLOR 1254 (4%), Method: STANDARD PLATE active; positive | Test System: AMES SALMONELLA TYPHIMURIUM, Strain/Indicator: TA1537, Metabolic Activation: RAT, LIVER, S-9, AROCLOR 1254 (4%), Method: STANDARD PLATE active; positive
